Assay results reported in US8920851B2, “Treatment of neurodegenerative diseases” (Velacor Therapeutics Pty Ltd, priority 2006, dated 2014).

How the values were obtained:
[1] = target: T1, PP2A A-C dimer (Homo sapiens, UniProt P67775); assay: Phosphopeptide / malachite green assay with purified PP2A; type: biochemical
T1 construct: purified PP2A A-C dimer purified from human red blood cells; purchased Upstate 14-111 (lot #28002); host or cells: human red blood cells (native purification)
Description: The amount of inorganic phosphate released by enzymatic activity was determined by the addition of malachite green, and absorbance read at 590 nm. Malachite green forms a stable green complex in the presence of molybdate and orthophosphate, allowing the concentration of inorganic phosphate present to be measured. Data is presented as mean absorbance at 590 nm from at least three independent experiments, ±SEM.
1 mg of synthetic phosphopeptides K-R-pT-I-R-R (Upstate #12-219) and R-R-A-pS-V-A (Upstate #12-220) were dissolved in 1.10-1.285 ml of dH2O to prepare a 1 mM solution, then aliquoted and stored at −20° C. until use. 0.01-0.05 U of purified PP2A A-C dimer purified from human red blood cells, or 0.05 U of rabbit PP1 purified from skeletal muscle was mixed with 500 μM of phosphopeptide and incubated in the presence of various treatments as indicated at 37° C. on a heating block for 15 min. Each reaction was made up to a total volume of 25 μl with pNPP buffer (50 mM Tris-HCl, pH 7.0, 100 μM CaCl2). The enzyme reaction was terminated by adding 100 μl of malachite green solution (0.034% malachite green in 10 mM ammonium molybdate, 1 N HCl, 3.4% ethanol, 0.01% Tween-20). Malachite green forms a stable green complex in the presence of molybdate and orthophosphate, allowing the amount of inorganic phosphate present to be measured. Absorbance was read in duplicate for each sample at 590 nm.

[2] = system: PHF Tau; conditions: Balb/C Nu Nu male mice, single subcutaneous injection 300 μg per 200 μl PBS, 2 and 6 hours
Description: Lysates preparation and Immunoblotting: Cells were washed twice in cold PBS and were lysed in 150 μl of cold RIPA buffer (containing 10% glycerol, 20 mM Tris, 137 mM NaCl, 0.1% SDS, 0.05% IGEPAL, 1% Triton X-100, 2 mM EDTA, 10% NaV, 2% NaF and 4× protease inhibitor), similarly, brain tissues were homogenised in dry ice using mortar and pestle, and lysed in 150 μl RIPA buffer. Samples were incubated on ice for 30 minutes, followed by centrifugation at 13000 rpm/ 10 minutes/ 4° C. Supernantant was collected and protein estimation was calculated for each sample by using BCA reagent (Sigma). Equal amounts of protein were loaded into each lane of a 10% SDS-polyacrylamide gel. The proteins were transferred onto PVDF (Millipore) membranes and were blocked with 5% skim milk blotto for 2 hours. After blocking the membrane, primary antibodies: either anti-human PHF-Tau (AT100 at 1:200, AT180 at 1:1000, and AT270 at 1:2500) or anti-human Tau (HT-7 at 1:1000) were incubated overnight at 4° C. in 5% skim milk blotto. Prior to secondary antibody incubation, membranes were rinsed 3× followed by 3×5 minutes washed in Tris-Buffered Saline with 0.01% Tween at room temperature. […] Membranes were washed as described above and were detected by using Amersham ECL western blotting detection reagent (Amersham Bioscience, Buckinghamshire, UK). […]

[3] = system: PC3 prostate carcinoma cells; assay: Intracellular redox state assay (DCFDA, flow cytometry); conditions: 1 h, sodium selenate 500 μM, NAC 1 mM
Description: 1×10^6 PC3 prostate carcinoma cells were plated in 60 mm dishes, allowed to attach for 8 h, and serum starved overnight. Cells were incubated with DCFDA 5 μM for 15 min prior to treatment.
The proportion of fluorescent cells was then determined by flow cytometry.
Intracellular redox state was determined using 2′,7′-dichlorodihydrofluorescein diacetate (DCFDA). […] Cells were equilibrated with 5 μM of DCFDA for 15 min prior to various treatments. Adherent cells were then harvested, washed twice with PBS and the proportion of fluorescent cells determined immediately by flow cytometry.

T1 sequence (P67775 whole entry): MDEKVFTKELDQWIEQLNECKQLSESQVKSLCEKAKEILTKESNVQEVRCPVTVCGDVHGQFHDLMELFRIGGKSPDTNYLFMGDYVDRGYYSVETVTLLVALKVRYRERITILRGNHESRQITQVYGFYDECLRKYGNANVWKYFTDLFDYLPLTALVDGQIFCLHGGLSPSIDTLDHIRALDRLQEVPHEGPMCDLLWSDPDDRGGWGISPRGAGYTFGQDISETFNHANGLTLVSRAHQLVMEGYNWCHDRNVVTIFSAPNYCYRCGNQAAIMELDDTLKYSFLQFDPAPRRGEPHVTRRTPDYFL
T1 sequence (P30153 2-589 partner limits assumed): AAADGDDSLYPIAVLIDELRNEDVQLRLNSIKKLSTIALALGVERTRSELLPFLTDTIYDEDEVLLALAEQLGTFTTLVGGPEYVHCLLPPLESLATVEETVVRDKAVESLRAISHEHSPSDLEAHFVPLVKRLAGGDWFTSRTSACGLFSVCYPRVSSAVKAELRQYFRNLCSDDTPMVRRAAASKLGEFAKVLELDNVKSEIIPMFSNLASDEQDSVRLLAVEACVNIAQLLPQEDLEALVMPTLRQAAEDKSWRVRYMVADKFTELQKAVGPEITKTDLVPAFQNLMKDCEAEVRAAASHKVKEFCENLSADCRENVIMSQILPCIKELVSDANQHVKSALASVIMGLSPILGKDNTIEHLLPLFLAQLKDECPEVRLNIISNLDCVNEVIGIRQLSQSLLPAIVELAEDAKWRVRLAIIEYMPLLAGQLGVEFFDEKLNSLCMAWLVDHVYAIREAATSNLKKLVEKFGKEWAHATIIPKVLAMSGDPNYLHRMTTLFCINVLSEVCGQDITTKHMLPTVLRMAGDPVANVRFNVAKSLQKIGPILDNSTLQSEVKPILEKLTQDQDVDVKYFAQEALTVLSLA

O=[Se](=O)(O)O [sodium selenate]
PP2A phosphatase activity, serine phosphopeptide as substrate ([1]; 50 μM of each selenium compound): clear boost in phosphatase activity | inorganic phosphate released from phosphopeptide by PP2A ([1]; 0.01-0.05 U PP2A, 500 μM phosphopeptide, 15 min at 37° C., 50 μM sodium selenate): more than doubled | PHF Tau signal in brain lysate, clone AT100 (60 kDa) [2]: PHF Tau signal appeared to be reduced | PHF Tau signal in brain lysate, clone AT180 (60 kDa) [2]: PHF Tau signal clearly reduced | basal proportion of fluorescent cells (ROS) [3]: had no effect on the basal proportion of fluorescent cells
